This is an account of results in patent US7504400B2, “MTP inhibiting aryl piperydines or piperazines substituted with 5-membered heterocycles” (Janssen Pharmaceutica N.V., priority 2004, dated 2009).

In the test the test system is Secretion of ApoB. Kind of test: Quantification of the secretion of ApoB in HepG2 cells. Format: cell-based. To be noted: Homo sapiens, HepG2, 24 h, 24 hours of incubation with test compound, immunoprecipitation of apoB from medium, read-out: pIC50 value (=-log IC50 value), secretion of ApoB (converted). On the procedure:
HepG2 cells were cultured in 24-well plates in MEM Rega 3 containing 10% fetal calf serum. At 70% confluency, the medium was changed and the test compound or carrier (DMSO, 0.4% final concentration) was added. After 24 hours of incubation, the medium was transferred to Eppendorf tubes and cleared by centrifugation. A sheep antibody directed against either apoB was added to the supernatant and the mixture was kept at 8° C. for 24 hours. Then, rabbit anti-sheep antibody was added and the immune complex was allowed to precipitate for 24 hours at 8° C. The immunoprecipitate was pelleted by centrifugation for 25 minutes at 1320 g and washed twice with a buffer containing 40 mM Mops, 40 mM NaH2PO4, 100 mM NaF, 0.2 mM DTT, 5 mM EDTA, 5 mM EGTA, 1% Triton-X-100, 0.5% sodium deoxycholate (DOC), 0.1% SDS, 0.2 μM leupeptin and 0.2 μM PMSF. Radioactivity in the pellet was quantified by liquid scintillation-counting. The IC50 values are usually converted to pIC50 values (=−log IC50 value) for ease of use.
In the case of `COC(=O)C(c1ccc(C)cc1)N1CCN(c2ccc(-n3cnn(C(C)c4ccccc4)c3=O)cc2)CC1` (stereo not shown) [Compound 318], the IC50 is 316 to 3160 nM. As for `COCCNC(=O)C(c1ccccc1)N1CCN(c2ccc(-n3cnn(C(C)C)c3=O)cn2)CC1` (stereo not shown) [Compound 4], the IC50 was 316 to 3160 nM. Consider `CCCCn1ncn(-c2ccc(N3CCC(C(C(=O)NC(C)C)c4ccccc4)CC3)cc2)c1=O` (stereo not shown) [Compound 88], for which the IC50 was 31.6 to 316 nM. As for `C=CCn1ncn(-c2ccc(N3CCC(C(C(=O)NCCC)c4ccccc4)CC3)cc2)c1=O` (stereo not shown) [Compound 152], the figure is 316 to 3160 nM.

For `CCNC(=O)C(c1ccccc1)N1CCN(c2ccc(-n3nc(-c4ccccc4)n(-c4ccccc4)c3=O)cc2)CC1` (stereo not shown) [Compound 26], the IC50 was 316 to 3160 nM. For `CC(C)n1ncn(-c2ccc(N3CCN(C(C(=O)NCc4ccc(N)cc4)c4ccccc4)CC3)cc2)c1=O` (stereo not shown) [Compound 126], the IC50 is 316 to 3160 nM.

As for `CCOC(=O)[C@H](c1ccccc1)N1CCN(c2ccc(-n3ccn([C@@H](C)c4ccccc4F)c3=O)cc2)CC1` (relative stereo) [Compound 272], the IC50 is 316 to 3160 nM. Under `COC(=O)C(c1ccccc1)N1CCN(c2ccc(-n3ncn(C(C)C)c3=O)cc2)CC1` (stereo not shown) [Compound 36] stands 316 to 3160 nM. Under `CCOC(=O)C(c1ccccc1)N1CCN(c2ccc(-n3nc4cccc(C)n4c3=O)cc2)CC1` (stereo not shown) [Compound 347] stands 316 to 3160 nM; under `C=CCn1ncn(-c2ccc(N3CCC(C(C(=O)NCc4ccccc4)c4ccccc4)CC3)cc2)c1=O` (stereo not shown) [Compound 180], 31.6 to 316 nM; under `CCOC(=O)C(c1ccccc1)N1CCC(c2ccc(-n3ccn([C@H](C)c4ccc(C)cc4)c3=O)cc2)CC1` (stereo partly shown) [Compound 233], 31.6 to 316 nM. As for `CC(C)n1ncn(-c2ccc(N3CCN(C(C(=O)Nc4ccc5c(c4)CCC5)c4ccccc4)CC3)c(F)c2)c1=O` (stereo not shown) [Compound 216], the figure is 31.6 to 316 nM; as for `CC(C)n1ncn(-c2ccc(N3CCN(C(C(=O)Nc4cccc5cccnc45)c4ccccc4)CC3)cc2)c1=O` (stereo not shown) [Compound 15], 316 to 3160 nM. On to `CCOC(=O)C(c1ccccc1)C1CCN(c2ccc(-n3ccn([C@@H](COC)c4ccccc4)c3=O)cc2)CC1` (stereo partly shown) [Compound 260], for which the IC50 was 316 to 3160 nM. As for `CCOC(=O)C(c1ccccc1)N1CCC(c2ccc(-n3ccn([C@@H](C)C4CCCCC4)c3=O)cc2)CC1` (stereo partly shown) [Compound 241], the figure is 316 to 3160 nM; as for `CC(C)n1ncn(-c2ccc(N3CCN(C(C(=O)NCc4nc5ccccc5[nH]4)c4ccccc4)CC3)cc2)c1=O` (stereo not shown) [Compound 127], 316 to 3160 nM. As for `CCCNC(=O)C(c1ccccc1)C1CCN(c2ccc(-n3cnn(CC4CC4)c3=O)cc2)CC1` (stereo not shown) [Compound 154], the figure is 31.6 to 316 nM. As for `CC(C)NC(=O)C(c1ccccc1)C1CCN(c2ccc(-n3cnn(C/C=C/c4ccccc4)c3=O)cc2)CC1` (stereo not shown) [Compound 92], the figure is 316 to 3160 nM; as for `CCOC(=O)CC(NC(=O)C(c1ccccc1)N1CCC(c2ccc(-n3cnn(C(C)C)c3=O)cc2)CC1)c1ccc2c(c1)OCO2` (stereo not shown) [Compound 351], 316 to 3160 nM. As for `CC(C)n1ncn(-c2ccc(N3CCN(C(C(=O)NCCNc4ccccc4)c4ccccc4)CC3)cc2)c1=O` (stereo not shown) [Compound 80], the concentration for half-maximal inhibition (IC50) is 31.6 to 316 nM.

Take `CCOC(=O)CC(NC(=O)C(c1ccccc1)N1CCN(c2ccc(-n3ccn(C(C)C)c3=O)cc2)CC1)c1ccc2c(c1)OCO2` (stereo not shown) [Compound 358]: the half-inhibitory concentration (IC50) is 316 to 3160 nM. Under `Cc1nn(C(C)C)c(=O)n1-c1ccc(N2CCN(C(C(=O)Nc3ccccc3)c3ccccc3)CC2)cc1` (stereo not shown) [Compound 112] stands 316 to 3160 nM; under `CC(C)n1ncn(-c2ccc(N3CCN(C(C(=O)NCC(C)(c4ccccc4)c4ccccc4)c4ccccc4)CC3)cc2)c1=O` (stereo not shown) [Compound 68], 316 to 3160 nM. In the case of `CC(C)n1ncn(-c2ccc(N3CCN(CCC(C(=O)N(C)C)(c4ccccc4)c4ccccc4)CC3)cc2)c1=O` [Compound 147], the IC50 was 316 to 3160 nM. As for `CCOC(=O)C(c1ccccc1)N1CCC(c2ccc(-n3ccn([C@@H](C)c4ccccc4)c3=O)cc2)CC1` (stereo partly shown) [Compound 228], the figure is 316 to 3160 nM; as for `CC(C)n1ncn(-c2ccc(N3CCN(CC(C(=O)NCCC#N)c4ccccc4)CC3)cc2)c1=O` (stereo not shown) [Compound 102], 316 to 3160 nM. With `CC(C)n1ncn(-c2ccc(N3CCN(CC(C(=O)NCc4ccccc4)c4ccccc4)CC3)cc2)c1=O` (stereo not shown) [Compound 130], the IC50 was 316 to 3160 nM. Consider `CCC(C)n1ncn(-c2ccc(N3CCN(C(C(=O)Nc4ccccc4)c4ccccc4)CC3)cc2)c1=O` (stereo not shown) [Compound 23], for which the IC50 was 31.6 to 316 nM. Under `COc1ccccc1NC(=O)C(c1ccccc1)N1CCN(c2ccc(-n3cnn(C(C)C)c3=O)cc2)CC1` (stereo not shown) [Compound 185] stands 316 to 3160 nM; under `CCOC(=O)C(c1ccccc1)N1CCN(c2ccc(-n3cnn(C(C)C)c3=O)cc2)CC1` (stereo not shown) [Compound 17], 316 to 3160 nM. As for `CC(C)Cn1ncn(-c2ccc(N3CCC(C(C(=O)NCc4ccccc4)c4ccccc4)CC3)cc2)c1=O` (stereo not shown) [Compound 181], the figure is 31.6 to 316 nM; as for `CC(C)NC(=O)C(c1ccccc1)N1CCN(c2ccc(-n3ncn(C(C)C)c3=O)cc2)CC1` (stereo not shown) [Compound 115], 316 to 3160 nM; as for `CCOC(=O)C(c1ccccc1)N1CCC(c2ccc(-n3ccn([C@H](C)c4ccc5ccccc5c4)c3=O)cc2)CC1` (stereo partly shown) [Compound 232], 31.6 to 316 nM.

For the compound `CC(C)n1ncn(-c2ccc(N3CCN(C(C(=O)Nc4ccccc4)c4ccccc4)CC3)nc2)c1=O` (stereo not shown) [Compound 37], the concentration for half-maximal inhibition (IC50) was 316 to 3160 nM.

On to `CCOC(=O)C(C)NC(=O)CC1CCN(c2ccc(-n3cnn(C(C)c4ccccc4)c3=O)cc2)CC1` (stereo not shown) [Compound 403], for which the IC50 is 316 to 3160 nM. For `COc1ccc(CNC(=O)C(c2ccccc2)N2CCN(c3ccc(-n4cnn(C(C)C)c4=O)cc3)CC2)c(OC)c1` (stereo not shown) [Compound 97], the IC50 was 31.6 to 316 nM. As to `CCOC(=O)[C@@H](c1ccccc1)N1CCN(c2ccc(-n3cnn([C@H](C)c4ccc(F)cc4)c3=O)cc2)CC1` (relative stereo) [Compound 298], the 50% inhibitory concentration (IC50) was 316 to 3160 nM. As for `CC(C)n1ncn(-c2ccc(N3CCN(CC(C(=O)N(C)C)c4ccccc4)CC3)cc2)c1=O` (stereo not shown) [Compound 6], the figure is 31.6 to 316 nM; as for `O=C(Nc1ccc2c(c1)CCC2)C(c1ccccc1)C1CCN(c2ccc(-n3ncn(Cc4ccccc4)c3=O)cc2)CC1` (stereo not shown) [Compound 212], below 31.6 nM; as for `CCOC(=O)C(c1ccccc1)C1CCN(c2ccc(-n3ccn([C@H](C)c4ccccc4)c3=O)cc2)CC1` (stereo partly shown) [Compound 247], 31.6 to 316 nM. Regarding `CCOC(=O)C(c1ccccc1)C1CCN(c2ccc(-n3ccn([C@@H](C)c4ccc(Br)cc4)c3=O)cc2)CC1` (stereo partly shown) [Compound 250], the half-maximal inhibitory concentration (IC50) was 316 to 3160 nM. Under `Cn1ncn(-c2ccc(N3CCC(C(C(=O)NCc4ccccc4)c4ccccc4)CC3)cc2)c1=O` (stereo not shown) [Compound 167] stands 316 to 3160 nM; under `Cc1cccc(NC(=O)C(c2ccccc2)N2CCN(c3ccc(-n4cnn(C(C)C)c4=O)cc3)CC2)n1` (stereo not shown) [Compound 12], 316 to 3160 nM; under `CC(C)n1ncn(-c2ccc(N3CCN(C(C(=O)Nc4ccc5c(c4)nc(-c4ccccc4)n5C)c4ccccc4)CC3)cc2)c1=O` (stereo not shown) [Compound 199], 316 to 3160 nM. Under `CCOC(=O)C(c1ccccc1)N1CCC(c2ccc(-n3ccn([C@@H](C)c4cccc5ccccc45)c3=O)cc2)CC1` (stereo partly shown) [Compound 226] stands 316 to 3160 nM; under `CCOC(=O)C(c1ccccc1)N1CCC(c2ccc(-n3ccn(C(CC)c4ccccc4)c3=O)cc2)CC1` (stereo not shown) [Compound 242], 31.6 to 316 nM.
